Test results: patent US6617313B1, “Glucopyranoside and process of isolation thereof from pterocarpus marsupium pharmaceutical composition containing the same and use thereof” (Council of Scientific and Industrial Research, priority 2002, dated 2003)

What was measured:
pancreatic beta cells = conditions: effect due to regeneration of pancreatic beta cells; claim questioned by Kolb et al and Sheehan et al; cited from earlier work
[1] = hypoglycaemic / anti-diabetic activity of the isolated compound (no test described); conditions: stated without test details

Row | melting point | SMILES | hypoglycemic principle (pancreatic beta cells) | hypoglycaemic activity [1] | anti-diabetic activity ([1]; listed as 2,6-dihydroxy-2-(P-hydroxybenzyl)-3(2H)benzofuran-7-C-β-D-glucopyranoside) | anti-diabetic activity ([1]; listed as 2,6-dihydroxy-2-(p-hydroxybenzyl)-3(2H)benzofuran-7-C-β-D-glucopyranoside)
1 | – | Oc1cc(O)c2c(c1)O[C@H](c1ccc(O)c(O)c1)[C@H](O)C2 [(−)-epicatechin] | active hypoglycemic principle | – | – | –
2 | 157 to 158 °C | O=C1c2ccc(O)c(C3OC(CO)C(O)C(O)C3O)c2OC1(O)Cc1ccc(O)cc1 [formula 1, 2,6-dihydroxy-2-(P-hydroxybenzyl)-3(2H)benzofuran-7-C-β-D-glucopyranoside] | – | shows hypoglycaemic activity | possesses anti-diabetic activity | antidiabetic activity
